Experiments:
Format in all cases: cell-based
E. coli O157:H7 = E. coli O157:H7 counts in water containing rumen content or feces treated with chemicals or chemical combinations; conditions: for E. coli O157:H7 counts (log10 cfu/ml) at min 0 / E. coli O157:H7 counts (log10 cfu/ml) at min 2 / E. coli O157:H7 counts (log10 cfu/ml) at min 5 / E. coli O157:H7 counts (log10 cfu/ml) at min 10 / E. coli O157:H7 counts (log10 cfu/ml) at min 20 / E. coli O157:H7 counts (log10 cfu/ml) at min 30 / E. coli O157:H7 counts (log10 cfu/ml) at min 60 / E. coli O157:H7 counts (log10 cfu/ml) at min 120: 21° C.; for E. coli O157:H7 counts (log10 cfu/ml) at min 0: 0 min; for E. coli O157:H7 counts (log10 cfu/ml) at min 2: 2 min; for E. coli O157:H7 counts (log10 cfu/ml) at min 5: 5 min; for E. coli O157:H7 counts (log10 cfu/ml) at min 10: 10 min; for E. coli O157:H7 counts (log10 cfu/ml) at min 20: 20 min; for E. coli O157:H7 counts (log10 cfu/ml) at min 30: 30 min; for E. coli O157:H7 counts (log10 cfu/ml) at min 60: 60 min; for E. coli O157:H7 counts (log10 cfu/ml) at min 120: 120 min
E. coli O26:H11 = E. coli O26:H11 counts in water containing rumen content or feces treated with chemical combinations; conditions: 21° C.; for E. coli O26:H11 counts (log10 cfu/ml) at min: 0: 0 min; for E. coli O26:H11 counts (log10 cfu/ml) at min: 2: 2 min; for E. coli O26:H11 counts (log10 cfu/ml) at min: 5: 5 min; for E. coli O26:H11 counts (log10 cfu/ml) at min: 10: 10 min; for E. coli O26:H11 counts (log10 cfu/ml) at min: 20: 20 min; for E. coli O26:H11 counts (log10 cfu/ml) at min: 30: 30 min; for E. coli O26:H11 counts (log10 cfu/ml) at min: 60: 60 min; for E. coli O26:H11 counts (log10 cfu/ml) at min: 120: 120 min
E. coli O111:NM = E. coli O111:NM counts in water containing rumen content or feces treated with chemical combinations; conditions: 21° C.; for E. coli O111:NM counts (log10 cfu/ml) at min 0: 0 min; for E. coli O111:NM counts (log10 cfu/ml) at min 2: 2 min; for E. coli O111:NM counts (log10 cfu/ml) at min 5: 5 min; for E. coli O111:NM counts (log10 cfu/ml) at min 10: 10 min; for E. coli O111:NM counts (log10 cfu/ml) at min 20: 20 min; for E. coli O111:NM counts (log10 cfu/ml) at min 30: 30 min; for E. coli O111:NM counts (log10 cfu/ml) at min 60: 60 min; for E. coli O111:NM counts (log10 cfu/ml) at min 120: 120 min
[1] = water containing feces (20:1, v/w)
[2] = water containing rumen content (10:1, v/w)

For `CCCC(=O)O` [0.5% butyric acid, butyric acid], the “inactivation of E. coli O157:H7 within 20 minutes” value (E. coli O157:H7; butyric acid >2%, caprylic acid >0.1%, data not shown) was “substantial inactivation”, the “E. coli O157:H7 counts (log10 cfu/ml) at min 0” value (E. coli O157:H7; [1]) was 6.0 log10 cfu/ml and the “E. coli O157:H7 counts (log10 cfu/ml) at min 2” value (E. coli O157:H7; [1]) was 6.0 log10 cfu/ml. For the same compound, the “E. coli O157:H7 counts (log10 cfu/ml) at min 5” value (E. coli O157:H7; [1]) was 6.0 log10 cfu/ml, the “E. coli O157:H7 counts (log10 cfu/ml) at min 10” value (E. coli O157:H7; [1]) was 6.1 log10 cfu/ml and the “E. coli O157:H7 counts (log10 cfu/ml) at min 20” value (E. coli O157:H7; [1]) was 6.1 log10 cfu/ml. For the same compound, the “E. coli O157:H7 counts (log10 cfu/ml) at min 30” value (E. coli O157:H7; [1]) was 6.1 log10 cfu/ml, the “E. coli O157:H7 counts (log10 cfu/ml) at min 60” value (E. coli O157:H7; [1]) was 6.0 log10 cfu/ml and the “E. coli O157:H7 counts (log10 cfu/ml) at min 120” value (E. coli O157:H7; [1]) was 6.0 log10 cfu/ml. For the same compound, the “E. coli O157:H7 counts (log10 cfu/ml) at min 0” value (E. coli O157:H7; [2]) was 5.9 log10 cfu/ml, the “E. coli O157:H7 counts (log10 cfu/ml) at min 2” value (E. coli O157:H7; [2]) was 5.9 log10 cfu/ml and the “E. coli O157:H7 counts (log10 cfu/ml) at min 5” value (E. coli O157:H7; [2]) was 5.9 log10 cfu/ml. The “E. coli O157:H7 counts (log10 cfu/ml) at min 10” value (E. coli O157:H7; [2]) was 5.8 log10 cfu/ml, the “E. coli O157:H7 counts (log10 cfu/ml) at min 20” value (E. coli O157:H7; [2]) was 5.7 log10 cfu/ml and the “E. coli O157:H7 counts (log10 cfu/ml) at min 30” value (E. coli O157:H7; [2]) was 5.8 log10 cfu/ml. For the same compound, the “E. coli O157:H7 counts (log10 cfu/ml) at min 60” value (E. coli O157:H7; [2]) was 5.6 log10 cfu/ml, the “E. coli O157:H7 counts (log10 cfu/ml) at min 120” value (E. coli O157:H7; [2]) was 5.7 log10 cfu/ml and the “E. coli O26:H11 counts (log10 cfu/ml) at min: 0” value (E. coli O26:H11; [1]) was 5.5 log10 cfu/ml. For the same compound, the “E. coli O26:H11 counts (log10 cfu/ml) at min: 2” value (E. coli O26:H11; [1]) was 5.4 log10 cfu/ml, the “E. coli O26:H11 counts (log10 cfu/ml) at min: 5” value (E. coli O26:H11; [1]) was 5.4 log10 cfu/ml and the “E. coli O26:H11 counts (log10 cfu/ml) at min: 10” value (E. coli O26:H11; [1]) was 5.4 log10 cfu/ml. For the same compound, the “E. coli O26:H11 counts (log10 cfu/ml) at min: 20” value (E. coli O26:H11; [1]) was 5.5 log10 cfu/ml, the “E. coli O26:H11 counts (log10 cfu/ml) at min: 30” value (E. coli O26:H11; [1]) was 5.2 log10 cfu/ml and the “E. coli O26:H11 counts (log10 cfu/ml) at min: 60” value (E. coli O26:H11; [1]) was 5.2 log10 cfu/ml. For the same compound, the “E. coli O26:H11 counts (log10 cfu/ml) at min: 120” value (E. coli O26:H11; [1]) was 5.0 log10 cfu/ml, the “E. coli O26:H11 counts (log10 cfu/ml) at min: 0” value (E. coli O26:H11; [2]) was 5.4 log10 cfu/ml and the “E. coli O26:H11 counts (log10 cfu/ml) at min: 2” value (E. coli O26:H11; [2]) was 5.4 log10 cfu/ml. The “E. coli O26:H11 counts (log10 cfu/ml) at min: 5” value (E. coli O26:H11; [2]) was 5.3 log10 cfu/ml, the “E. coli O26:H11 counts (log10 cfu/ml) at min: 10” value (E. coli O26:H11; [2]) was 5.4 log10 cfu/ml and the “E. coli O26:H11 counts (log10 cfu/ml) at min: 20” value (E. coli O26:H11; [2]) was 5.4 log10 cfu/ml. For the same compound, the “E. coli O26:H11 counts (log10 cfu/ml) at min: 30” value (E. coli O26:H11; [2]) was 5.2 log10 cfu/ml, the “E. coli O26:H11 counts (log10 cfu/ml) at min: 60” value (E. coli O26:H11; [2]) was 5.4 log10 cfu/ml and the “E. coli O26:H11 counts (log10 cfu/ml) at min: 120” value (E. coli O26:H11; [2]) was 5.1 log10 cfu/ml. For the same compound, the “E. coli O111:NM counts (log10 cfu/ml) at min 0” value (E. coli O111:NM; [1]) was 5.6 log10 cfu/ml, the “E. coli O111:NM counts (log10 cfu/ml) at min 2” value (E. coli O111:NM; [1]) was 5.6 log10 cfu/ml and the “E. coli O111:NM counts (log10 cfu/ml) at min 5” value (E. coli O111:NM; [1]) was 5.5 log10 cfu/ml. The “E. coli O111:NM counts (log10 cfu/ml) at min 10” value (E. coli O111:NM; [1]) was 5.6 log10 cfu/ml, the “E. coli O111:NM counts (log10 cfu/ml) at min 20” value (E. coli O111:NM; [1]) was 5.6 log10 cfu/ml and the “E. coli O111:NM counts (log10 cfu/ml) at min 30” value (E. coli O111:NM; [1]) was 5.6 log10 cfu/ml. For the same compound, the “E. coli O111:NM counts (log10 cfu/ml) at min 60” value (E. coli O111:NM; [1]) was 5.6 log10 cfu/ml, the “E. coli O111:NM counts (log10 cfu/ml) at min 120” value (E. coli O111:NM; [1]) was 5.6 log10 cfu/ml and the “E. coli O111:NM counts (log10 cfu/ml) at min 0” value (E. coli O111:NM; [2]) was 5.5 log10 cfu/ml. The “E. coli O111:NM counts (log10 cfu/ml) at min 2” value (E. coli O111:NM; [2]) was 5.5 log10 cfu/ml, the “E. coli O111:NM counts (log10 cfu/ml) at min 5” value (E. coli O111:NM; [2]) was 5.5 log10 cfu/ml and the “E. coli O111:NM counts (log10 cfu/ml) at min 10” value (E. coli O111:NM; [2]) was 5.6 log10 cfu/ml. The “E. coli O111:NM counts (log10 cfu/ml) at min 20” value (E. coli O111:NM; [2]) was 5.6 log10 cfu/ml, the “E. coli O111:NM counts (log10 cfu/ml) at min 30” value (E. coli O111:NM; [2]) was 5.4 log10 cfu/ml and the “E. coli O111:NM counts (log10 cfu/ml) at min 60” value (E. coli O111:NM; [2]) was 5.5 log10 cfu/ml. For the same compound, the “E. coli O111:NM counts (log10 cfu/ml) at min 120” value (E. coli O111:NM; [2]) was 5.6 log10 cfu/ml.
